EPA's CvTdb concentration-time database

Assays:
Assay in all cases: concentration in plasma after dosing
Rat [1] = settings: dosed: Bromochloroacetic acid, 10 mg/kg, oral, Male, Harlan Sprague Dawley
Rat [2] = settings: 0.75 h; dosed: Bromochloroacetic acid; 40 mg/kg; oral; Female; Harlan Sprague Dawley
Rat [3] = settings: dosed: Bromochloroacetic acid, 10 mg/kg, oral, Male, Harlan Sprague Dawley; remark: listed apart in the source
Rat [4] = settings: dosed: Bromochloroacetic acid, 10 mg/kg, oral, Male, Harlan Sprague Dawley; remark: listed apart in the source
Rat [5] = settings: dosed: Bromochloroacetic acid, 40 mg/kg, oral, Female, Harlan Sprague Dawley
Rat [6] = settings: dosed: Bromochloroacetic acid, 10 mg/kg, oral, Male, Harlan Sprague Dawley; remark: listed apart in the source
Rat [7] = settings: dosed: Bromochloroacetic acid, 10 mg/kg, oral, Male, Harlan Sprague Dawley; remark: listed apart in the source
Rat [8] = settings: 20 min; dosed: Bromochloroacetic acid; 10 mg/kg; oral; Male; Harlan Sprague Dawley
Rat [9] = settings: 20 min; dosed: Bromochloroacetic acid; 10 mg/kg; oral; Male; Harlan Sprague Dawley; remark: listed apart in the source
Rat [10] = settings: dosed: Bromochloroacetic acid, 40 mg/kg, oral, Female, Harlan Sprague Dawley; remark: listed apart in the source
Rat [11] = settings: dosed: Bromochloroacetic acid, 40 mg/kg, oral, Female, Harlan Sprague Dawley; remark: listed apart in the source
Rat [12] = settings: 0.25 h; dosed: Bromochloroacetic acid; 10 mg/kg; oral; Male; Harlan Sprague Dawley
Rat [13] = settings: dosed: Bromochloroacetic acid, 40 mg/kg, oral, Female, Harlan Sprague Dawley; remark: listed apart in the source
Rat [14] = settings: 5 min; dosed: Bromochloroacetic acid; 40 mg/kg; oral; Female; Harlan Sprague Dawley
Rat [15] = settings: dosed: Bromochloroacetic acid, 10 mg/kg, oral, Male, Harlan Sprague Dawley; remark: listed apart in the source
Rat [16] = settings: 0.75 h; dosed: Bromochloroacetic acid; 40 mg/kg; oral; Female; Harlan Sprague Dawley; remark: listed apart in the source
Rat [17] = settings: dosed: Bromochloroacetic acid, 40 mg/kg, oral, Female, Harlan Sprague Dawley; remark: listed apart in the source
Rat [18] = settings: dosed: Bromochloroacetic acid, 10 mg/kg, oral, Male, Harlan Sprague Dawley; remark: listed apart in the source
Rat [19] = settings: dosed: Bromochloroacetic acid, 40 mg/kg, oral, Female, Harlan Sprague Dawley; remark: listed apart in the source
Rat [20] = settings: 0.75 h; dosed: Bromochloroacetic acid; 40 mg/kg; oral; Female; Harlan Sprague Dawley; remark: listed apart in the source
Rat [21] = settings: 20 min; dosed: Bromochloroacetic acid; 10 mg/kg; oral; Male; Harlan Sprague Dawley; remark: listed apart in the source
Rat [22] = settings: dosed: Bromochloroacetic acid, 40 mg/kg, oral, Female, Harlan Sprague Dawley; remark: listed apart in the source
Rat [23] = settings: dosed: Bromochloroacetic acid, 40 mg/kg, oral, Female, Harlan Sprague Dawley; remark: listed apart in the source
Rat [24] = settings: dosed: Bromochloroacetic acid, 40 mg/kg, oral, Female, Harlan Sprague Dawley; remark: listed apart in the source
Rat [25] = settings: dosed: Bromochloroacetic acid, 10 mg/kg, oral, Male, Harlan Sprague Dawley; remark: listed apart in the source
Rat [26] = settings: dosed: Bromochloroacetic acid, 40 mg/kg, oral, Female, Harlan Sprague Dawley; remark: listed apart in the source
Rat [27] = settings: dosed: Bromochloroacetic acid, 40 mg/kg, oral, Female, Harlan Sprague Dawley; remark: listed apart in the source
Rat [28] = settings: dosed: Bromochloroacetic acid, 40 mg/kg, oral, Female, Harlan Sprague Dawley; remark: listed apart in the source
Rat [29] = settings: 20 min; dosed: Bromochloroacetic acid; 10 mg/kg; oral; Male; Harlan Sprague Dawley; remark: listed apart in the source
Rat [30] = settings: 0.25 h; dosed: Bromochloroacetic acid; 10 mg/kg; oral; Male; Harlan Sprague Dawley; remark: listed apart in the source
Rat [31] = settings: dosed: Bromochloroacetic acid, 10 mg/kg, oral, Male, Harlan Sprague Dawley; remark: listed apart in the source
Rat [32] = settings: dosed: Bromochloroacetic acid, oral, Harlan Sprague Dawley
Rat [33] = settings: 20 min; dosed: Bromochloroacetic acid; 10 mg/kg; oral; Male; Harlan Sprague Dawley; remark: listed apart in the source
Rat [34] = settings: dosed: Bromochloroacetic acid, 40 mg/kg, oral, Female, Harlan Sprague Dawley; remark: listed apart in the source
Rat [35] = settings: dosed: Bromochloroacetic acid, 10 mg/kg, oral, Male, Harlan Sprague Dawley; remark: listed apart in the source
Rat [36] = settings: dosed: Bromochloroacetic acid, 10 mg/kg, oral, Male, Harlan Sprague Dawley; remark: listed apart in the source
Rat [37] = settings: dosed: Bromochloroacetic acid, 10 mg/kg, oral, Male, Harlan Sprague Dawley; remark: listed apart in the source
Rat [38] = settings: dosed: Bromochloroacetic acid, 10 mg/kg, oral, Male, Harlan Sprague Dawley; remark: listed apart in the source
Rat [39] = settings: 0.75 h; dosed: Bromochloroacetic acid; 40 mg/kg; oral; Female; Harlan Sprague Dawley; remark: listed apart in the source
Rat [40] = settings: dosed: Bromochloroacetic acid, 10 mg/kg, oral, Male, Harlan Sprague Dawley; remark: listed apart in the source
Rat [41] = settings: dosed: Bromochloroacetic acid, 40 mg/kg, oral, Female, Harlan Sprague Dawley; remark: listed apart in the source
Rat [42] = settings: dosed: Bromochloroacetic acid, 40 mg/kg, oral, Female, Harlan Sprague Dawley; remark: listed apart in the source
Rat [43] = settings: 0.75 h; dosed: Bromochloroacetic acid; 40 mg/kg; oral; Female; Harlan Sprague Dawley; remark: listed apart in the source
Rat [44] = settings: dosed: Bromochloroacetic acid, 40 mg/kg, oral, Female, Harlan Sprague Dawley; remark: listed apart in the source
Rat [45] = settings: dosed: Bromochloroacetic acid, 10 mg/kg, oral, Male, Harlan Sprague Dawley; remark: listed apart in the source
Rat [46] = settings: dosed: Bromochloroacetic acid, 10 mg/kg, oral, Male, Harlan Sprague Dawley; remark: listed apart in the source
Rat [47] = settings: dosed: Bromochloroacetic acid, 10 mg/kg, oral, Male, Harlan Sprague Dawley; remark: listed apart in the source
Rat [48] = settings: dosed: Bromochloroacetic acid, 10 mg/kg, oral, Male, Harlan Sprague Dawley; remark: listed apart in the source

O=C(O)C(Cl)Br (stereo not given) [Bromochloroacetic acid]
Settings	concentration in plasma [ng/mL]
Rat [1], 1.5 h	238
Rat [1], 10 min	516
Rat [3], 1.5 h	96.2
Rat [3], 10 min	241
Rat [4], 0.75 h	218
Rat [4], 2 min	104
Rat [5], 2 h	3920
Rat [5], 10 min	2220
Rat [6], 1 h	299
Rat [6], 5 min	383
Rat [7], 1 h	196
Rat [7], 5 min	423
Rat [10], 1 h	7500
Rat [10], 2 min	396
Rat [11], 1.5 h	7410
Rat [11], 5 min	4130
Rat [13], 4 h	2010
Rat [13], 20 min	3310
Rat [15], 1 h	164
Rat [15], 5 min	255
Rat [17], 1 h	7660
Rat [17], 2 min	536
Rat [18], 0.25 h	727
Rat [18], 2 h	136
Rat [19], 1.5 h	6540
Rat [19], 5 min	2780
Rat [22], 1 h	5710
Rat [22], 2 min	984
Rat [23], 2 h	4710
Rat [23], 10 min	2240
Rat [24], 1 h	8650
Rat [24], 2 min	484
Rat [25], 1 h	201
Rat [25], 5 min	210
Rat [26], 1 h	9330
Rat [26], 2 min	564
Rat [27], 4 h	1060
Rat [27], 6 h	172
Rat [28], 1.5 h	4490
Rat [28], 5 min	2540
Rat [31], 1.5 h	155
Rat [31], 10 min	322
Rat [34], 6 h	201
Rat [34], 20 min	5740
Rat [35], 0.75 h	225
Rat [35], 2 min	104
Rat [36], 0.75 h	283
Rat [36], 2 min	71.7
Rat [37], 0.25 h	643
Rat [37], 2 h	120
Rat [38], 1.5 h	107
Rat [38], 10 min	494
Rat [40], 1.5 h	122
Rat [40], 10 min	475
Rat [41], 1.5 h	5290
Rat [41], 5 min	1440
Rat [42], 0.25 h	3060
Rat [42], 3 h	1880
Rat [44], 0.25 h	5810
Rat [44], 3 h	2170
Rat [45], 0.75 h	284
Rat [45], 2 min	80.1
Rat [46], 0.25 h	545
Rat [46], 3 h	88.7
Rat [47], 1 h	224
Rat [47], 5 min	362
Rat [48], 0.75 h	485
Rat [48], 2 min	216

Settings	concentration in plasma [ng/mL]
Rat [2]	11800
Rat [8]	521
Rat [9]	544
Rat [12]	476
Rat [14]	2990
Rat [16]	6170
Rat [20]	10300
Rat [21]	733
Rat [29]	508
Rat [30]	576
Rat [33]	663
Rat [39]	10700
Rat [43]	9710

Rat [32]
Settings	concentration in plasma [ng/mL]
0.25 h, 10 mg/kg, Male	543
0.25 h, 40 mg/kg, Female	5910
0.75 h, 10 mg/kg, Male	177
0.75 h, 40 mg/kg, Female	7630
1 h, 10 mg/kg, Male	187
1 h, 40 mg/kg, Female	6900
1.5 h, 10 mg/kg, Male	166
1.5 h, 40 mg/kg, Female	4860
2 h, 10 mg/kg, Male	95.5
2 h, 40 mg/kg, Female	2940
2 min, 10 mg/kg, Male	83.2
3 h, 40 mg/kg, Female	1990
4 h, 40 mg/kg, Female	3160
5 min, 10 mg/kg, Male	214
5 min, 40 mg/kg, Female	1770
10 min, 10 mg/kg, Male	168
10 min, 40 mg/kg, Female	3420
20 min, 10 mg/kg, Male	364
20 min, 40 mg/kg, Female	4390
